Experimental data as given in ChEMBL document CHEMBL3885861, “Open TG-GATES”.

Species on record: Rattus norvegicus
Assay: Open TG-GATES - Regimen: Single
Assay type: toxicity, organism-based, Sprague-Dawley
Design: regimen Single, gender Male, age 6 weeks
Settings: in vivo, po, 0 mg/kg, route gavage, dose level Control; for Bas / Eos / Hb / Ht / Lym / MCH / MCHC / MCV / Mono / Neu / Plat / RBC / Ret / WBC: tissue Blood; for KIDNEY_L / KIDNEY_R / KIDNEY_TOTAL: tissue Kidney; for LIVER: tissue Liver; for A/G / ALP / ALT / AST / BUN / CRE / Ca / Cl / DBIL / GLC / IP / K / LDH / Na / PL / RALB / TBIL / TC / TG / TP / gamma-GTP: tissue Plasma

Compound `Cc1ccc2cc3c(ccc4ccccc43)c3c2c1CC3` [3-METHYLCHOLANTHRENE] has a TERMINAL_BW (3 h) of 209.2 g, a Bas (3 h) of 0% and an Eos (3 h) of 0.6%. The Hb (3 h) was 12.8 g/dL, the Ht (3 h) was 39.3% and the Lym (3 h) was 79.2%. For the same compound, the MCH (3 h) was 20.8 pg, the MCHC (3 h) was 32.6% and the MCV (3 h) was 63.7 fL. For the same compound, the Mono (3 h) was 3.6%, the Neu (3 h) was 16.2% and the Plat (3 h) was 126.1 x10_4/uL. For the same compound, the RBC (3 h) was 616.6 x10_4/ul, the Ret (3 h) was 8.7% and the WBC (3 h) was 119.3 x10_2/uL. It also gave a KIDNEY_L (3 h) of 0.9 g, a KIDNEY_R (3 h) of 0.9 g and a KIDNEY_TOTAL (3 h) of 1.9 g. For the same compound, the LIVER (3 h) was 9.3 g, the A/G (3 h) was 1.1 and the ALP (3 h) was 1726.2 IU/L. For the same compound, the ALT (3 h) was 46.2 IU/L, the AST (3 h) was 77.6 IU/L and the BUN (3 h) was 10.5 mg/dL. For the same compound, the CRE (3 h) was 0.1 mg/dL, the Ca (3 h) was 10.7 mg/dL and the Cl (3 h) was 104.3 meq/L. For the same compound, the DBIL (3 h) was 0.002 mg/dL, the GLC (3 h) was 185.2 mg/dL and the IP (3 h) was 7.7 mg/dL. The K (3 h) was 3.9 meq/L, the LDH (3 h) was 179.6 IU/L and the Na (3 h) was 140.3 meq/L. It also gave a PL (3 h) of 163.8 mg/dL, an RALB (3 h) of 2.8 g/dL and a TBIL (3 h) of 0.002 mg/dL. For the same compound, the TC (3 h) was 77.2 mg/dL, the TG (3 h) was 142.8 mg/dL and the TP (3 h) was 5.6 g/dL. For the same compound, the gamma-GTP (3 h) was 0.7 IU/L, the TERMINAL_BW (6 h) was 206.1 g and the Bas (6 h) was 0%. For the same compound, the Eos (6 h) was 0.6%, the Hb (6 h) was 12.8 g/dL and the Ht (6 h) was 38.9%. It also gave a Lym (6 h) of 69%, an MCH (6 h) of 20.7 pg and an MCHC (6 h) of 32.8%. The MCV (6 h) was 63.2 fL, the Mono (6 h) was 3.4% and the Neu (6 h) was 26.2%. The Plat (6 h) was 124.5 x10_4/uL, the RBC (6 h) was 616.2 x10_4/ul and the Ret (6 h) was 8.7%. For the same compound, the WBC (6 h) was 125.8 x10_2/uL, the KIDNEY_L (6 h) was 0.9 g and the KIDNEY_R (6 h) was 0.9 g. The KIDNEY_TOTAL (6 h) was 1.8 g, the LIVER (6 h) was 8.4 g and the A/G (6 h) was 1. For the same compound, the ALP (6 h) was 1728.2 IU/L, the ALT (6 h) was 38 IU/L and the AST (6 h) was 69.6 IU/L. It also gave a BUN (6 h) of 8.9 mg/dL, a CRE (6 h) of 0.1 mg/dL and a Ca (6 h) of 10.4 mg/dL. The Cl (6 h) was 104.5 meq/L, the DBIL (6 h) was 0.002 mg/dL and the GLC (6 h) was 201.6 mg/dL. It also gave an IP (6 h) of 9.9 mg/dL, a K (6 h) of 4.3 meq/L and an LDH (6 h) of 114.8 IU/L. It also gave a Na (6 h) of 139.9 meq/L, a PL (6 h) of 142.4 mg/dL and an RALB (6 h) of 2.7 g/dL. It also gave a TBIL (6 h) of 0.014 mg/dL, a TC (6 h) of 80.2 mg/dL and a TG (6 h) of 51 mg/dL. For the same compound, the TP (6 h) was 5.5 g/dL, the gamma-GTP (6 h) was 0.7 IU/L and the TERMINAL_BW (9 h) was 204.4 g. The Bas (9 h) was 0%, the Eos (9 h) was 0.6% and the Hb (9 h) was 12.5 g/dL. The Ht (9 h) was 38.9%, the Lym (9 h) was 75.2% and the MCH (9 h) was 20.7 pg. The MCHC (9 h) was 32.1%, the MCV (9 h) was 64.5 fL and the Mono (9 h) was 2.6%. For the same compound, the Neu (9 h) was 21%, the Plat (9 h) was 129.6 x10_4/uL and the RBC (9 h) was 603.8 x10_4/ul. It also gave a Ret (9 h) of 9%, a WBC (9 h) of 80.7 x10_2/uL and a KIDNEY_L (9 h) of 1 g. The KIDNEY_R (9 h) was 1 g, the KIDNEY_TOTAL (9 h) was 1.9 g and the LIVER (9 h) was 8.4 g. For the same compound, the A/G (9 h) was 1, the ALP (9 h) was 1550.4 IU/L and the ALT (9 h) was 33.8 IU/L. It also gave an AST (9 h) of 63.4 IU/L, a BUN (9 h) of 10.6 mg/dL and a CRE (9 h) of 0.1 mg/dL. The Ca (9 h) was 10.6 mg/dL, the Cl (9 h) was 103.4 meq/L and the DBIL (9 h) was 0.004 mg/dL. For the same compound, the GLC (9 h) was 176.6 mg/dL, the IP (9 h) was 10.9 mg/dL and the K (9 h) was 4.4 meq/L. The LDH (9 h) was 137.8 IU/L, the Na (9 h) was 141.6 meq/L and the PL (9 h) was 132.2 mg/dL. It also gave an RALB (9 h) of 2.7 g/dL, a TBIL (9 h) of 0.006 mg/dL and a TC (9 h) of 71.4 mg/dL. It also gave a TG (9 h) of 52.7 mg/dL, a TP (9 h) of 5.5 g/dL and a gamma-GTP (9 h) of 0.7 IU/L. It also gave a TERMINAL_BW (24 h) of 220.6 g, a Bas (24 h) of 0% and an Eos (24 h) of 0.6%. The Hb (24 h) was 12.6 g/dL, the Ht (24 h) was 38.4% and the Lym (24 h) was 79.4%. The MCH (24 h) was 20.5 pg, the MCHC (24 h) was 32.7% and the MCV (24 h) was 62.7 fL. It also gave a Mono (24 h) of 3.2%, a Neu (24 h) of 16% and a Plat (24 h) of 119.3 x10_4/uL. The RBC (24 h) was 612.8 x10_4/ul, the Ret (24 h) was 8% and the WBC (24 h) was 100 x10_2/uL. The KIDNEY_L (24 h) was 0.9 g, the KIDNEY_R (24 h) was 1 g and the KIDNEY_TOTAL (24 h) was 1.9 g. The LIVER (24 h) was 9.8 g, the A/G (24 h) was 1 and the ALP (24 h) was 1697 IU/L. It also gave an ALT (24 h) of 38 IU/L, an AST (24 h) of 72 IU/L and a BUN (24 h) of 13.8 mg/dL. It also gave a CRE (24 h) of 0.1 mg/dL, a Ca (24 h) of 10.9 mg/dL and a Cl (24 h) of 103 meq/L. For the same compound, the DBIL (24 h) was 0 mg/dL, the GLC (24 h) was 186.2 mg/dL and the IP (24 h) was 7.1 mg/dL. It also gave a K (24 h) of 4.4 meq/L, an LDH (24 h) of 181 IU/L and a Na (24 h) of 142 meq/L. For the same compound, the PL (24 h) was 160.8 mg/dL, the RALB (24 h) was 2.8 g/dL and the TBIL (24 h) was 0.006 mg/dL. It also gave a TC (24 h) of 82 mg/dL, a TG (24 h) of 134.9 mg/dL and a TP (24 h) of 5.5 g/dL. The gamma-GTP (24 h) was 0.8 IU/L.
